Data: article PMC11397024, “Strategic Fluorination to Achieve a Potent, Selective, Metabolically Stable, and Orally Bioavailable Inhibitor of CSNK2” (Molecules, 2024)

Tests used:
Test in all cases: NanoBRET K192
Format in all cases: cell-based
ULK1 = target: T1, ULK1 (Homo sapiens, UniProt O75385); conditions: HEK293
T1 construct: purchased Promega (NanoBRET Target Engagement K192 Kinase Selectivity System)
Protocol: (§1) The K192 selectivity assay was run according to the Draft Promega technical manual, NanoBRET^TM Target Engagement K192 Kinase Selectivity System. Reagents were supplied by Promega (Promega NP 4101). For the assay, DNA from the prepared kinase vector panel plates A and B were mixed with Fugene in 96-well plates (Corning 3917) and incubated at room temperature for 30 min. The NanoLuc® Low control vector pNL1.1.CMV [Nluc/CMV] Vector (Cat.# N1091) and the transfection control vector NanoLuc®-HIPK2 Fusion Vector (Cat.# NV3221) were used as controls.
(§2) HEK293 cells were grown to 75–95% confluency in DMEM (Gibco 11995-065) supplemented with FBS (Avantor 97068-085) at 37 °C in […]. On the first day of the assay, cells were harvested and resuspended in Opti-MEM (Gibco 11058-021) supplemented with 1% FBS (Avantor 97068-085) at 2.5 × 10^5 cells per mL. A volume of 60 μL of cell suspension was mixed with 10 μL of prepared DNA (10X concentration) and 30 μL of Fugene (30 μL/mL in Opti-MEM) as outlined by Promega and incubated overnight at 37 °C in a 5% CO2 incubator.
(§3) On day two of the assay, 5 μL of 20X K10 tracer was prepared and added at concentrations recommended by Promega. Then, 10 μL of test compounds at 100 μM in Opti-MEM (diluted from a 10 mM solution in DMSO) was added to the test wells while an equivalent volume of Opti-MEM was added to the high-control wells. Plates were kept at 37 °C in a 5% CO2 incubator for two hours. After two hours, plates were allowed to equilibrate to room temperature for 15 min. A solution of 3X Complete Substrate plus Inhibitor Solution was freshly prepared, consisting of a 1:166 dilution of NanoBRET™ Nano-Glo® Substrate plus a 1:500 dilution of Extracellular NanoLuc® Inhibitor in Opti-MEM® medium without serum or phenol red. A 50 μL volume of the 3X Complete Substrate plus Inhibitor Solution was added to each assay well, including control wells. After 2–3 min, the plate was shaken at 300 RPM for 10 s, and the donor emission wavelength (450 nm) and acceptor emission wavelength (610 nm) were measured using the Glomax® Discover System.
(§4) As a quality check, the donor signal-to-background ratio was calculated for each individual kinase by dividing the mean donor signal for each kinase by the mean donor signal for the signal-to-background control wells. Fractional occupancy of the test drug for each kinase was determined using the following formula:Occupancy (%) = [1 − (Sample − Bottom)/(Top − Bottom)] × 100 where

LATS2 = target: T2, LATS2 (Homo sapiens, UniProt Q9NRM7); conditions: HEK293
T2 construct: purchased Promega (NanoBRET Target Engagement K192 Kinase Selectivity System)
Protocol: as §1, §2, §3, §4

MELK = target: T3, MELK (Homo sapiens, UniProt Q14680); conditions: HEK293
T3 construct: purchased Promega (NanoBRET Target Engagement K192 Kinase Selectivity System)
Protocol: as §1, §2, §3, §4

PRKACA = target: T4, PRKACA (Homo sapiens, UniProt P17612); conditions: HEK293
T4 construct: purchased Promega (NanoBRET Target Engagement K192 Kinase Selectivity System)
Protocol: as §1, §2, §3, §4

PRKX = target: T5, PRKX (Homo sapiens, UniProt P51817); conditions: HEK293
T5 construct: purchased Promega (NanoBRET Target Engagement K192 Kinase Selectivity System)
T5 sequence (P51817 whole entry): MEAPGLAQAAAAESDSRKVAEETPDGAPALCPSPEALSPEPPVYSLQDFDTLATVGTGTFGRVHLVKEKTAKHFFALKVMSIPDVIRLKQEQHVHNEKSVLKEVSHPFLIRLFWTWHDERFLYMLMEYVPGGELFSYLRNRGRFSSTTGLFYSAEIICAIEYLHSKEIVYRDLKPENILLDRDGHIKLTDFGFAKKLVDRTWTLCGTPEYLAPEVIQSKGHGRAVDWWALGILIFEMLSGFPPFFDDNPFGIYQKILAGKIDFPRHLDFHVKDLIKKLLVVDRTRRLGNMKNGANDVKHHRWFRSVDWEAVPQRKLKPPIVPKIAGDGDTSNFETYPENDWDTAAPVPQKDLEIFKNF
Protocol: as §1, §2, §3, §4

LATS1 = target: T6, LATS1 (Homo sapiens, UniProt O95835); conditions: HEK293
T6 construct: purchased Promega (NanoBRET Target Engagement K192 Kinase Selectivity System)
Protocol: as §1, §2, §3, §4

FES = target: T7, FES (Homo sapiens, UniProt P07332); conditions: HEK293
T7 construct: purchased Promega (NanoBRET Target Engagement K192 Kinase Selectivity System)
Protocol: as §1, §2, §3, §4

TEK = target: T8, TEK (Homo sapiens, UniProt Q02763); conditions: HEK293
T8 construct: purchased Promega (NanoBRET Target Engagement K192 Kinase Selectivity System)
Protocol: as §1, §2, §3, §4

RPS6KA1 = target: T9, RPS6KA1 (Homo sapiens, UniProt Q15418); conditions: HEK293
T9 construct: purchased Promega (NanoBRET Target Engagement K192 Kinase Selectivity System)
Protocol: as §1, §2, §3, §4

MYLK4 = target: T10, MYLK4 (Homo sapiens, UniProt Q86YV6); conditions: HEK293
T10 construct: purchased Promega (NanoBRET Target Engagement K192 Kinase Selectivity System)
T10 sequence (Q86YV6 whole entry): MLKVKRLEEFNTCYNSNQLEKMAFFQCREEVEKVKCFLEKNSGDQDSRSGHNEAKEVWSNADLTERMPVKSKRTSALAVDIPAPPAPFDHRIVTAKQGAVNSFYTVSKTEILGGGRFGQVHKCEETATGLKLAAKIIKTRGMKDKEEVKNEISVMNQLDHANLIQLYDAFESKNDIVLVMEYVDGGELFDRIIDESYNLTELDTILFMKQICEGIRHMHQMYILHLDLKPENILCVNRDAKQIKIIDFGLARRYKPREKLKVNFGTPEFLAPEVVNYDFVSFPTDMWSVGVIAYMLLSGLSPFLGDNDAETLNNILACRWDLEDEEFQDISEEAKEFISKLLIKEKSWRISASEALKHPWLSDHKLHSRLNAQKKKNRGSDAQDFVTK
Protocol: as §1, §2, §3, §4

MAP3K9 = target: T11, MAP3K9 (Homo sapiens, UniProt P80192); conditions: HEK293
T11 construct: purchased Promega (NanoBRET Target Engagement K192 Kinase Selectivity System)
Protocol: as §1, §2, §3, §4

IGF1R = target: T12, IGF1R (Homo sapiens, UniProt P08069); conditions: HEK293
T12 construct: host or cells: HEK293
Protocol: as §1, §2, §3, §4

CLK2 = target: T13, CLK2 (Homo sapiens, UniProt P49760)
T13 construct: expressed in transfected cells; host or cells: HEK293
T13 sequence (P49760 whole entry): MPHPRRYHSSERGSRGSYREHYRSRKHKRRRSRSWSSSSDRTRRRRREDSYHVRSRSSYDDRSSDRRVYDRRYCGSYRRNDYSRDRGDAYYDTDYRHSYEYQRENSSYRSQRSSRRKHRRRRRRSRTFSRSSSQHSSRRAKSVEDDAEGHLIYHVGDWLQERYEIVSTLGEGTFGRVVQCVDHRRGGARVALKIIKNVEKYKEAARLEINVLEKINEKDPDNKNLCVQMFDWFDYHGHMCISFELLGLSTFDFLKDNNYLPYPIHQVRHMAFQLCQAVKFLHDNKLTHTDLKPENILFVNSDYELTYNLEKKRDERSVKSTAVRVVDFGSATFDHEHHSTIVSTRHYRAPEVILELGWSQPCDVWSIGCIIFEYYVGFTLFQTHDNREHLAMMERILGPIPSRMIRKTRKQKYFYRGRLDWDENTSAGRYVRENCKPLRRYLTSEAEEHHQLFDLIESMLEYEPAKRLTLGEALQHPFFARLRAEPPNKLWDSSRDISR
Protocol: as §1, §2, §3, §4

GAK = target: T14, GAK (Homo sapiens, UniProt O14976); conditions: HEK293
T14 construct: purchased Promega (NanoBRET Target Engagement K192 Kinase Selectivity System)
Protocol: as §1, §2, §3, §4

DYRK1A = target: T15, DYRK1A (Homo sapiens, UniProt Q13627)
T15 construct: purchased Promega (NanoBRET Target Engagement K192 Kinase Selectivity System)
Protocol: as §1, §2, §3, §4

SNRK = target: T16, SNRK (Homo sapiens, UniProt Q9NRH2); conditions: HEK293
T16 construct: host or cells: HEK293
Protocol: as §1, §2, §3, §4

CDKL3 = target: T17, CDKL3 (Homo sapiens, UniProt Q8IVW4); conditions: HEK293
T17 construct: purchased Promega (NanoBRET Target Engagement K192 Kinase Selectivity System)
Protocol: as §1, §2, §3, §4

RON = target: T18, RON (Homo sapiens, UniProt Q04912); conditions: HEK293
T18 construct: purchased Promega (NanoBRET Target Engagement K192 Kinase Selectivity System)
T18 sequence (Q04912 25-1400): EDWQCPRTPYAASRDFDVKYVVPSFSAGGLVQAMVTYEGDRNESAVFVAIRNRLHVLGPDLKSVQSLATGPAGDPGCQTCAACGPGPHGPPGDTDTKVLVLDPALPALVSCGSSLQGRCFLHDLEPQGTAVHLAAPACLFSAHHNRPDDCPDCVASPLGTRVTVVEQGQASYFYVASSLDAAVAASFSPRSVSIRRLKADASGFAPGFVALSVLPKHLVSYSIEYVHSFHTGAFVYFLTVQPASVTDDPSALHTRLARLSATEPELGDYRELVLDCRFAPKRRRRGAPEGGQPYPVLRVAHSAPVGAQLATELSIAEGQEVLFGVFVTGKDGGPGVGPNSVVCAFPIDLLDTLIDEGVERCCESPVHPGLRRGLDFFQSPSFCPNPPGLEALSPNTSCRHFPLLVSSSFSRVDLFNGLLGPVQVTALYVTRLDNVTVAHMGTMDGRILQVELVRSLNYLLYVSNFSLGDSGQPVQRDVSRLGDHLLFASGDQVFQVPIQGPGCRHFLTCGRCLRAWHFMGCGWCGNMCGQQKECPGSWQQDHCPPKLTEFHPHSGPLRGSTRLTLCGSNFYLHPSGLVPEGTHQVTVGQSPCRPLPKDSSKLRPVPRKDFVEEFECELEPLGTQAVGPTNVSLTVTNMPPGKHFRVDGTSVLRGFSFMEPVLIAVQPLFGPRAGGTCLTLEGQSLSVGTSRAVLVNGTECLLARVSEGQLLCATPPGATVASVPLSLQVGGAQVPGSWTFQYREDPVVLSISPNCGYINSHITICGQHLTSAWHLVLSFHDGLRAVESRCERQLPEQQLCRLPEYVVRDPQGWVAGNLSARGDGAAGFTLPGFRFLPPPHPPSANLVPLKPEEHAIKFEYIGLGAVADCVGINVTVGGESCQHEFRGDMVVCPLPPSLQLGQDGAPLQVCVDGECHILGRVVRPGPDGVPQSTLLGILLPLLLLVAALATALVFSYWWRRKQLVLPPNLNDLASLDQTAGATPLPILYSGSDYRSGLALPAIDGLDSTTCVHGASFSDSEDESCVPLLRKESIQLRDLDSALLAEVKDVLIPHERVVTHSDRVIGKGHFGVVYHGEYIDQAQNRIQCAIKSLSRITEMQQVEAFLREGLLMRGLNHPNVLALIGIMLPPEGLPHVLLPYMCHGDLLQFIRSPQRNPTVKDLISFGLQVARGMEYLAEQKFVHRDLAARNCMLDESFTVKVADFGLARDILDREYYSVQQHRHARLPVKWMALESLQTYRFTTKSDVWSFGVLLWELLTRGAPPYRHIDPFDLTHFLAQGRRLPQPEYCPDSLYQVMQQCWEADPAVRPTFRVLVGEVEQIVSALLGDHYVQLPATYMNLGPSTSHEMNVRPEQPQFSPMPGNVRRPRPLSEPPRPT
Protocol: as §1, §2, §3, §4

JAK2 (V617F) = target: T19, JAK2 (V617F) (Homo sapiens, UniProt O60674, V617F); conditions: HEK293
T19 construct: purchased Promega (NanoBRET Target Engagement K192 Kinase Selectivity System)
Protocol: as §1, §2, §3, §4

RPS6KA4 = target: T20, RPS6KA4 (Homo sapiens, UniProt O75676); conditions: HEK293
T20 construct: purchased Promega (NanoBRET Target Engagement K192 Kinase Selectivity System)
Protocol: as §1, §2, §3, §4

MAP4K3 = target: T21, MAP4K3 (Homo sapiens, UniProt Q8IVH8); conditions: HEK293
T21 construct: purchased Promega (NanoBRET Target Engagement K192 Kinase Selectivity System)
Protocol: as §1, §2, §3, §4

CDK7 + pMB = target: T22, CDK7 + pMB (Homo sapiens, UniProt P50613); conditions: HEK293
T22 construct: purchased Promega (NanoBRET Target Engagement K192 Kinase Selectivity System)
Protocol: as §1, §2, §3, §4

MAP3K4 = target: T23, MAP3K4 (Homo sapiens, UniProt Q9Y6R4); conditions: HEK293
T23 construct: purchased Promega (NanoBRET Target Engagement K192 Kinase Selectivity System)
T23 sequence (Q9Y6R4 whole entry): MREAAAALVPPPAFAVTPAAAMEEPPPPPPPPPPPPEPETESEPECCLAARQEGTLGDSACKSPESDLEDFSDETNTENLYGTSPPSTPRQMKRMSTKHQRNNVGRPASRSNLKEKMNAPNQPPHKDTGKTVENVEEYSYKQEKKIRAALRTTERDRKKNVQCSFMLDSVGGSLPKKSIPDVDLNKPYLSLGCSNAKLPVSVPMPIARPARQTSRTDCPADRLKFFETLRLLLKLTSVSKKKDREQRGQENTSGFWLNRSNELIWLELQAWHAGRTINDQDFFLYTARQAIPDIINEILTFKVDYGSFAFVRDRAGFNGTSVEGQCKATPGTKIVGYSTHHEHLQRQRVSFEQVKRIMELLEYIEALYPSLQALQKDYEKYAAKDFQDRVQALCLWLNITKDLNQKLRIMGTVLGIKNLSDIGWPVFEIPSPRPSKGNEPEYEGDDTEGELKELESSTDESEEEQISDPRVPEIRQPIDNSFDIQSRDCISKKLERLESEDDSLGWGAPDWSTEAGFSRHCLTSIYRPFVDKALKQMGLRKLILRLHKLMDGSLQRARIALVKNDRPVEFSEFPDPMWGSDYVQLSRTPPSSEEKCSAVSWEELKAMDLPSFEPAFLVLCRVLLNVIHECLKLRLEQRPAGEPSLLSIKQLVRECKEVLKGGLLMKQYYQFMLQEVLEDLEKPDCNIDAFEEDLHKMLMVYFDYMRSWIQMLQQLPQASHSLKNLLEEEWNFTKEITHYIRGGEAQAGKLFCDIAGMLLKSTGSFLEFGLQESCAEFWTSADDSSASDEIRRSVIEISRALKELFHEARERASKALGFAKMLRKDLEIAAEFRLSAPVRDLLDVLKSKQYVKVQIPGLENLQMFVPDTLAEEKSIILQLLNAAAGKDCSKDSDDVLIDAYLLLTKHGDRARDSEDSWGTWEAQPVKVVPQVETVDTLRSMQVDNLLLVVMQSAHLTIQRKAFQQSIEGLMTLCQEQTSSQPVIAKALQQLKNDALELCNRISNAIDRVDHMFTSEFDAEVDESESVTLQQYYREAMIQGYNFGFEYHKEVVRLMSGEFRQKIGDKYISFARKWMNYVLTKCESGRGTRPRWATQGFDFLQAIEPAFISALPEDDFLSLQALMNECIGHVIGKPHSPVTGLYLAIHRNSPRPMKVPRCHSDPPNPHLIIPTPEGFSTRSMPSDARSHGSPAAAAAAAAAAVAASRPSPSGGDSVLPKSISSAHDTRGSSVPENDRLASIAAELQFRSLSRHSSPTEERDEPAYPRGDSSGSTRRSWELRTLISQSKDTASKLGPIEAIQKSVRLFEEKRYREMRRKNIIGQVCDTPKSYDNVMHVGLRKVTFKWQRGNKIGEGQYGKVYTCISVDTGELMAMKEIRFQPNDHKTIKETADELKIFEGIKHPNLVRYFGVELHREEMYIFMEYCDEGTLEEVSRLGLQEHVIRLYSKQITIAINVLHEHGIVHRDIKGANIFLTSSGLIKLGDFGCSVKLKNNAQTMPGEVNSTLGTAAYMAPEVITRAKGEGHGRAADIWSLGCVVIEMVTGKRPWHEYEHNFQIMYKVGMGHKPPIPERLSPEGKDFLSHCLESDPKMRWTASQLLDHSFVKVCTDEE
Protocol: as §1, §2, §3, §4

CDKL5 = target: T24, CDKL5 (Homo sapiens, UniProt O76039); conditions: HEK293
T24 construct: purchased Promega (NanoBRET Target Engagement K192 Kinase Selectivity System)
Protocol: as §1, §2, §3, §4

MAPK14 = target: T25, MAPK14 (Homo sapiens, UniProt Q16539); conditions: HEK293
T25 construct: purchased Promega (NanoBRET Target Engagement K192 Kinase Selectivity System)
Protocol: as §1, §2, §3, §4

STK11 = target: T26, STK11 (Homo sapiens, UniProt Q15831); conditions: HEK293
T26 construct: purchased Promega (NanoBRET Target Engagement K192 Kinase Selectivity System)
Protocol: as §1, §2, §3, §4

MAP3K12 = target: T27, MAP3K12 (Homo sapiens, UniProt Q12852); conditions: HEK293
T27 construct: purchased Promega (NanoBRET Target Engagement K192 Kinase Selectivity System)
T27 sequence (Q12852 whole entry): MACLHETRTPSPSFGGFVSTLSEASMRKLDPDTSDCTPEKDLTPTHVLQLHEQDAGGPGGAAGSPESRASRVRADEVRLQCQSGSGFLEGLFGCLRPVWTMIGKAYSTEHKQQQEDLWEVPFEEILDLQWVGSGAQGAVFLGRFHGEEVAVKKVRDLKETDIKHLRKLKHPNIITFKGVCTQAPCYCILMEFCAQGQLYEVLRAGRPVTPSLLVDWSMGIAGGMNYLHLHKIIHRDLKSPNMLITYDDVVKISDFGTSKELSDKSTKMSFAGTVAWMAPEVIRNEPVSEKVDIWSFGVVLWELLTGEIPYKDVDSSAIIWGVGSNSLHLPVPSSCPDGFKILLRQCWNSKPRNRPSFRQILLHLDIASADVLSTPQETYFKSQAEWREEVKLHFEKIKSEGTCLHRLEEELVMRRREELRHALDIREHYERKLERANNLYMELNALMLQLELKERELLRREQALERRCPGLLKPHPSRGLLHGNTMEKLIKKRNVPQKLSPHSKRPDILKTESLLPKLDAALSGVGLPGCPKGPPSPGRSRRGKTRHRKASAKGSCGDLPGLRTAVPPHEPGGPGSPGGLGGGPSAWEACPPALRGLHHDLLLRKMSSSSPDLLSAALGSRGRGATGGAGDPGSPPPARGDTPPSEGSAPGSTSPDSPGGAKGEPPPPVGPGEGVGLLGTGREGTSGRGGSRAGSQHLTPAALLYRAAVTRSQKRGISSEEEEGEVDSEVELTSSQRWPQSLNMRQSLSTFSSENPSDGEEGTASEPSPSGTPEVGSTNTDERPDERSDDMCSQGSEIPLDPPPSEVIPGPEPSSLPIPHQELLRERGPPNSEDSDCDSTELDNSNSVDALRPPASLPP
Protocol: as §1, §2, §3, §4

CCC(=O)Nc1cc(Nc2cc(NC3CC3)n3ncc(C#N)c3n2)c(F)cc1N1CCC[C@H](NC)C1 [Compound 2, (S)-N-(5-((3-cyano-7-(cyclopropylamino)pyrazolo[1,5-a]pyrimidin-5-yl)amino)-4-fluoro-2-(3-(methylamino)piperidin-1-yl)phenyl)propionamide]
receptor occupancy at 10 µM (ULK1): 25.2%
receptor occupancy at 10 µM (LATS2): 9.4%
receptor occupancy at 10 µM (MELK): 24.5%
receptor occupancy at 10 µM (PRKACA): 11.7%
receptor occupancy at 10 µM (PRKX): 10.6%
receptor occupancy at 10 µM (LATS1): -0.4%
receptor occupancy at 10 µM (FES): 11.7%
receptor occupancy at 10 µM (TEK): 5.2%
receptor occupancy at 10 µM (RPS6KA1): 7.1%
receptor occupancy at 10 µM (MYLK4): 38.5%
receptor occupancy at 10 µM (MAP3K9): 4.3%
receptor occupancy at 10 µM (IGF1R): -2.6%
% occupancy at 10 μM (CLK2; CLK2, HEK293): 85%
receptor occupancy at 10 µM (CLK2; HEK293, CLK2): 84.8%
receptor occupancy at 10 µM (GAK): 3.3%
% occupancy at 10 μM (DYRK1A; DYRK1A, HEK293): 71%
receptor occupancy at 10 µM (DYRK1A; HEK293, DYRK1A): 71.2%
receptor occupancy at 10 µM (SNRK): -2%
receptor occupancy at 10 µM (CDKL3): 19.4%
receptor occupancy at 10 µM (RON): 7.6%
receptor occupancy at 10 µM (JAK2 (V617F)): 13.1%
receptor occupancy at 10 µM (RPS6KA4): 6.4%
receptor occupancy at 10 µM (MAP4K3): 2.9%
receptor occupancy at 10 µM (CDK7 + pMB): 43.9%
receptor occupancy at 10 µM (MAP3K4): 4.9%
receptor occupancy at 10 µM (CDKL5): 17.2%
receptor occupancy at 10 µM (MAPK14): 10.4%
receptor occupancy at 10 µM (STK11): 0.1%
receptor occupancy at 10 µM (MAP3K12): -0.1%
